One molecule from patent publication US12428377B2, “Sodium-hydrogen exchanger 3 inhibitor compounds” (Eli Lilly and Company, priority 2019, dated 2025) can be followed below.

This test concerns the target T1, human NHE3 (Homo sapiens, UniProt P48764).
T1 construct: myc; expressed in transfected cells
T1 sequence (P48764 26-834): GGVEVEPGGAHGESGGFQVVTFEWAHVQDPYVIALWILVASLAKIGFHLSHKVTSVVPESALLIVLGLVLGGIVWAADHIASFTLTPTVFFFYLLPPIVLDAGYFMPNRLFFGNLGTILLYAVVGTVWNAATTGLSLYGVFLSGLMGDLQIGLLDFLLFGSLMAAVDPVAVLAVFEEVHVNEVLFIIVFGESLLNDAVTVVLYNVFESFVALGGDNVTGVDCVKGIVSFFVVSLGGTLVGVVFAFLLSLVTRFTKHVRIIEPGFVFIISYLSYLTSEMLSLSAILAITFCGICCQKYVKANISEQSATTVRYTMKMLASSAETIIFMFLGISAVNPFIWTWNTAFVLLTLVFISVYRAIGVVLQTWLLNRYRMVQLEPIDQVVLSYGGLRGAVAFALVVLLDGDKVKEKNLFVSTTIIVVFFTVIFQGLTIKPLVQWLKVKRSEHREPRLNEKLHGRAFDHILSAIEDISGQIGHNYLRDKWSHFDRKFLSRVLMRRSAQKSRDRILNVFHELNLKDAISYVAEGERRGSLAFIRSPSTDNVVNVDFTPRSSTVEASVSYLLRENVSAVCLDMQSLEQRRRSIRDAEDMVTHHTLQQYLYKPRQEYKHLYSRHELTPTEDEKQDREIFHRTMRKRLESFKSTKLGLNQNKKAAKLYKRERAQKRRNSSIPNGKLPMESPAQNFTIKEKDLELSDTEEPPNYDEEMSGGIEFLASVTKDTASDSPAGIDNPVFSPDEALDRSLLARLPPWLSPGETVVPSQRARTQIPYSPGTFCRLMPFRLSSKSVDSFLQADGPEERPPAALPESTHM
The test is described as follows: In vitro NHE3 inhibition activity (intracellular pH recovery, BCECF-AM, NHD C8 cells overexpressing human NHE3). It is filed as cell-based. As to conditions: geometric mean of individual IC50. An excerpt:
In Vitro NHE3 Inhibition Activity
To create an NHE3 assay, cells selectively expressing NHE3 are generated by overexpressing human NHE3 in an endogenously NHE-deficient cell line. The NHE-deficient cell line is created by chemical-induced mutagenesis. After the mutagenesis, NHE-deficient cells are selected by subjecting lithium (Li) loaded cells to an acidic extracellular environment. Under these conditions, NHE exchanges intracellular Li^+ for extracellular protons, thus only NHE-deficient cells can avoid a toxic intracellular acidosis and survive.
An NHE-deficient cell line, NHD C8, is generated by mutagenesis and selection from the cell line Dede (ATCC® CCL-39™). The mutagenesis is induced by treating Dede CCL-39 cells with EMS (Sigma-Aldrich) in growth media at a final concentration of 500 μg/ml for 20 h. […]
To measure NHE activity, the intracellular pH of the cells is reduced by addition of NH4Cl. The sodium-dependent intracellular pH change is then measured by the intracellular pH-sensitive fluorescein dye, BCECF-AM (Molecular Probes-ThermoFisher Scientific). […] The plate is immediately read for fluorescent intensity at an excitation wavelength of 505 nm and emission wavelength of 550 nm. […]

The IC50 is the point on the concentration scale where inhibition reaches its midpoint. In the case of `CN1Cc2c(Cl)cc(Cl)cc2[C@H](c2cccc(S(=O)(=O)NCCOCCOCCN/C(=N\C(N)=O)NCCCCN/C(=N/C(N)=O)NCCOCCOCCNS(=O)(=O)c3cccc([C@@H]4CN(C)Cc5c(Cl)cc(Cl)cc54)c3)c2)C1.Cl.Cl` [Example 2, [[4-[[N′-Carbamoyl-N-[2-[2-[2-[[3-[(4S)-6,8-dichloro-2-methyl-3,4-dihydro-1H-isoquinolin-4-yl]phenyl]sulfonylamino]ethoxy]ethoxy]ethyl]carbamimidoyl]amino]butylamino]-[2-[2-[2-[[3-[(4S)-6,8-dichloro-2-methyl-3,4-dihydro-1H-isoquinolin-4-yl]phenyl]sulfonylamino]ethoxy]ethoxy]ethylamino]methylene]urea dihydrochloride], the IC50 came to 5.76 nM.
